Experimental data as given in ChEMBL document CHEMBL2016544, “Low brain penetrant CB1 receptor agonists for the treatment of neuropathic pain” (Bioorg Med Chem Lett, 2012).
≈ marks a conversion by molar mass, not a printed value. Calls of active or inactive are those of the source. The calls are words filed in the database; no cut-off is given here.

How the values were obtained:
[1] = Intrinsic clearance in rat liver microsomes; format: ADME, Microsome; conditions: read-out: CLH
[2] = Intrinsic clearance in human liver microsomes; format: ADME, Microsome; conditions: read-out: CLH
Cannabinoid receptor 1 [3] = target: T1, Cannabinoid receptor 1 (Homo sapiens, UniProt P21554); assay: Agonist activity at CB1 receptor; format: functional
T1 sequence (P21554 whole entry): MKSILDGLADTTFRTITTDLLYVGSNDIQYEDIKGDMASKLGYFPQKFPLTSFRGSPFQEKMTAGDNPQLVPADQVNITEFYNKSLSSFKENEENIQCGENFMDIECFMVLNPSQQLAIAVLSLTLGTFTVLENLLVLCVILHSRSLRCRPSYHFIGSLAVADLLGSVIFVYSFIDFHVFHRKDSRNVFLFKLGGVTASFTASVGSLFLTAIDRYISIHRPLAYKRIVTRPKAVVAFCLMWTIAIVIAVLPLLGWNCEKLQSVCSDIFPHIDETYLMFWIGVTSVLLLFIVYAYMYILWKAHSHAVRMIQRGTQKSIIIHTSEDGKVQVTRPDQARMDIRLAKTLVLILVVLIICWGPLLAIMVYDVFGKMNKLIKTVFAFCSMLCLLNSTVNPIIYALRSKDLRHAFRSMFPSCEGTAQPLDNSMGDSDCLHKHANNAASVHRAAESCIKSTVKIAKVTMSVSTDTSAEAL

[4] = Ratio of drug level in brain to plasma in mouse; format: ADME, organism-based; conditions: read-out: BPR
Cannabinoid receptor 1 [5] = target: T1, Cannabinoid receptor 1; assay: Displacement of [3H]CP 55,940 from human CB1 receptor expressed in insect sf9 membranes; format: cell membranes
Cannabinoid receptor 2 = Cannabinoid receptor 2 (Homo sapiens, UniProt P34972); assay: Displacement of [3H]CP 55,940 from human CB2 receptor expressed in insect sf9 membranes; format: cell membranes
Cannabinoid receptor 2, sequence (P34972 whole entry): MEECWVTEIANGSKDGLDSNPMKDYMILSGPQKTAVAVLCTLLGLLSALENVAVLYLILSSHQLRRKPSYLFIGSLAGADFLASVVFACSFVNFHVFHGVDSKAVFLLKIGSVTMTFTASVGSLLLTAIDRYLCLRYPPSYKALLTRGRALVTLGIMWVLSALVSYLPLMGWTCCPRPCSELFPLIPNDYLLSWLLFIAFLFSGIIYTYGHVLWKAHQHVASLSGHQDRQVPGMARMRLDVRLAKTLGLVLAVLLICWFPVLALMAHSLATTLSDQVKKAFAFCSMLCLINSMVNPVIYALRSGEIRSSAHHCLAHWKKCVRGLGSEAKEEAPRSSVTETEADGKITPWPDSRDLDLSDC

[6] = Oral bioavailability in rat; format: ADME, organism-based; conditions: in vivo
Rattus norvegicus [7] = assay: Analgesic activity in sc dosed rat Chung von Frey model of neuropathic pain assessed as anti-allodynic effect against mechanical stimulus; format: functional
Rattus norvegicus [8] = assay: Ratio of MED for toxicity in sc dosed rat assessed as catalepsy to ED50 for anti-allodynic activity in sc dosed rat Chung von Frey model of neuropathic pain; format: functional
Rattus norvegicus [9] = assay: Toxicity in sc dosed rat assessed as catalepsy by ring immobility test; format: organism-based; conditions: in vivo
[10] = Solubility of the compound at pH 7.4; format: physicochemical; conditions: buffer
[11] = Efflux ratio of apparent permeability from basolateral to apical side over apical to basolateral side in human Caco2 cells; format: ADME, cell-based; conditions: Caco-2
Rattus norvegicus [12] = assay: Analgesic activity in po dosed rat Chung von Frey model of neuropathic pain assessed as anti-allodynic effect against mechanical stimulus; format: functional
[13] = target: Voltage-gated inwardly rectifying potassium channel KCNH2 (Homo sapiens, UniProt Q12809); assay: Displacement of [3H]dofetilide from human ERG
Voltage-gated inwardly rectifying potassium channel KCNH2, sequence (Q12809 whole entry): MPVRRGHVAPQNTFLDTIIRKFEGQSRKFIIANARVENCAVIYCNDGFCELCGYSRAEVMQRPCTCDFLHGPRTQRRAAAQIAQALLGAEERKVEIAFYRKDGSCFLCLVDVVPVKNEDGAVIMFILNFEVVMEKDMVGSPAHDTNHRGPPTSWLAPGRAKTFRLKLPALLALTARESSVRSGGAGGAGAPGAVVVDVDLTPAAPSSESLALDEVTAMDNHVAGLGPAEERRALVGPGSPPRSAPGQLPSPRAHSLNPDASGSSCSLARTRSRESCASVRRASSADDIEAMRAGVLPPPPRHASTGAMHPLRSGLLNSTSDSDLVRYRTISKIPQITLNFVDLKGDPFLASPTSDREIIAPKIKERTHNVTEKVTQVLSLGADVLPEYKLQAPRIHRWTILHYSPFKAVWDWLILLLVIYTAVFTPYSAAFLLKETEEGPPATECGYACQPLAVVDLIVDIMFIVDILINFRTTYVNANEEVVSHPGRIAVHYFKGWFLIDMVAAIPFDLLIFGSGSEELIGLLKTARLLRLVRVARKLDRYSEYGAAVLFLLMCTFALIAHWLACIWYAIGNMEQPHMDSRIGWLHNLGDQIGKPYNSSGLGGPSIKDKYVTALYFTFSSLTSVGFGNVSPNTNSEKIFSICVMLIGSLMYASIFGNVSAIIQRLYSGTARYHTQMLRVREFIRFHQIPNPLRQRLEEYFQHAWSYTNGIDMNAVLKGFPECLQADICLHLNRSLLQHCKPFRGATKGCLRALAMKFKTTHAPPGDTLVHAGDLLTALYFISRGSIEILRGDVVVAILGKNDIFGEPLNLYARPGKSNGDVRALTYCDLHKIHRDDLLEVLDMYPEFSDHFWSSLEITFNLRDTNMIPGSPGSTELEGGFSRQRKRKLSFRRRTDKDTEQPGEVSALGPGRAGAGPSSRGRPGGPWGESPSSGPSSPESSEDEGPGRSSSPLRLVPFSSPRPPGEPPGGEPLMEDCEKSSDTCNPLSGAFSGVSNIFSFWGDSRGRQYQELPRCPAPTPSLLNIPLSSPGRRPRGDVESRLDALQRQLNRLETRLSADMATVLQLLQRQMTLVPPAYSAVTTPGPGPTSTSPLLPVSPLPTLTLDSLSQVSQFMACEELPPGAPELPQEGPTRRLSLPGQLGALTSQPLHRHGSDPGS

[14] = Clearance in rat at 2 mg/kg, iv; format: ADME, organism-based; design: dose 2 mg/kg, route intravenous; conditions: in vivo
[15] = Cmax in Wistar BRL rat plasma at 24 mg/kg, po by LC-MS/MS analysis; format: ADME, organism-based; design: dose 24 mg/kg, route oral
Rattus norvegicus [16] = assay: Analgesic activity in po dosed rat Chung von Frey model of neuropathic pain assessed as anti-allodynic effect against mechanical stimulus in presence of CB1 receptor antagonist rimonabant; format: functional, organism-based
[17] = Ratio of Cmax in mouse brain to Cmax in mouse plasma at 3 umol/kg, iv; format: ADME
[18] = Volume of distribution at steady state in rat at 2 mg/kg, iv; format: ADME, organism-based; design: dose 2 mg/kg, route intravenous; conditions: in vivo, read-out: Vdss
Rattus norvegicus [19] = assay: Toxicity in po dosed rat assessed as catalepsy by ring immobility test; format: organism-based; conditions: in vivo
[20] = Ratio of AUC in CSF to free plasma of Wistar BRL rat at 24 mg/kg, po by LC-MS/MS analysis; format: ADME, organism-based; design: dose 24 mg/kg, route oral; conditions: in vivo
Rattus norvegicus [21] = assay: Analgesic activity in po dosed rat Chung Hargreaves model of neuropathic pain assessed as inhibition of thermal hyperalgesia; format: functional
[22] = Plasma protein binding in rat; format: ADME, cell-free; conditions: read-out: PPB (converted)
[23] = Ratio of Cmax in CSF to free plasma of Wistar BRL rat at 24 mg/kg, po by LC-MS/MS analysis; format: ADME, organism-based; design: dose 24 mg/kg, route oral; conditions: in vivo
[24] = Cmax in mouse plasma at 3 umol/kg, iv; format: ADME, organism-based; design: dose 3 umol/kg, route intravenous
[25] = Plasma protein binding in human; format: ADME, cell-free; conditions: read-out: PPB (converted)
[26] = Intrinsic clearance in rabbit liver microsomes; format: ADME, Oryctolagus cuniculus, Microsome; conditions: read-out: CLH
[27] = Ratio of AUC in brain to plasma of Wistar BRL rat at 24 mg/kg, po by LC-MS/MS analysis; format: ADME, organism-based; design: dose 24 mg/kg, route oral; conditions: read-out: Ratio AUC
[28] = Ratio of Cmax in brain to plasma of Wistar BRL rat at 24 mg/kg, po by LC-MS/MS analysis; format: ADME, organism-based; design: dose 24 mg/kg, route oral
[29] = Plasma protein binding in mouse; format: ADME, cell-free; conditions: read-out: PPB (converted)
[30] = Oral bioavailability in rat at 10 mg/kg; format: ADME, organism-based; conditions: in vivo
[31] = Intrinsic clearance in dog liver microsomes; format: ADME, Canis lupus familiaris, Microsome; conditions: read-out: CLH
[32] = Cmax in Wistar BRL rat brain at 24 mg/kg, po by LC-MS/MS analysis; format: ADME, organism-based; design: dose 24 mg/kg, route oral
[33] = Intrinsic clearance in mouse liver microsomes; format: ADME, Microsome; conditions: read-out: CLH
[34] = Intrinsic clearance in human hepatocytes assessed per million cells; format: ADME, cell-based, Hepatocyte; conditions: read-out: CLH
[35] = Plasma protein binding in dog; format: ADME, cell-free, Canis lupus familiaris; conditions: read-out: PPB (converted)
[36] = Half life in rat at 2 mg/kg, iv; format: ADME, organism-based; design: dose 2 mg/kg, route intravenous; conditions: in vivo
Rattus norvegicus [37] = assay: Ratio of MED for toxicity in […] to ED50 for anti-allodynic activity in po dosed rat Chung von Frey model of neuropathic pain; format: functional
[38] = Intrinsic clearance in rat hepatocytes assessed per million cells; format: ADME, cell-based, Hepatocyte; conditions: read-out: CLH
[39] = Plasma protein binding in rabbit; format: ADME, cell-free, Oryctolagus cuniculus; conditions: read-out: PPB (converted)
[40] = Cmax in Wistar BRL rat CSF at 24 mg/kg, po by LC-MS/MS analysis; format: ADME, organism-based, Cerebrospinal fluid; design: dose 24 mg/kg, route oral
[41] = Cmax in mouse brain at 3 umol/kg, iv; format: ADME, organism-based; design: dose 3 umol/kg, route intravenous
[42] = Apparent permeability across human Caco2 cells; format: ADME, cell-based; conditions: Caco-2
[43] = Ratio of AUC in mouse brain to AUC in mouse plasma at 3 umol/kg, iv; format: ADME; conditions: read-out: Ratio AUC

CN(CC(N)=O)Cc1nc(-c2cn(CC3CCS(=O)(=O)CC3)c3c(Cl)cccc23)ns1
microsomal CLint [1]: 52 µL/min/mg
microsomal CLint [2]: 25 µL/min/mg
EC50 (Cannabinoid receptor 1 [3]): 158 nM

COc1cccc2c(-c3nsc(CN(C)CC(N)=O)n3)cn(CC3CCOCC3)c12
EC50 (Cannabinoid receptor 1 [3]): 1260 nM

O=C(NCCO)C1CCN(Cc2nc(-c3cn(CC4CCOCC4)c4c(Cl)cccc34)ns2)CC1
microsomal CLint [1]: 49 µL/min/mg
microsomal CLint [2]: 18 µL/min/mg
EC50 (Cannabinoid receptor 1 [3]): 79.4 nM

COc1cccc2c(-c3nsc(CN4CCC(C(=O)NCCO)CC4)n3)cn(CC3CCOCC3)c12
microsomal CLint [1]: 33 µL/min/mg
microsomal CLint [2]: 19 µL/min/mg
EC50 (Cannabinoid receptor 1 [3]): 31.6 nM

O=C(NCCO)C1CCN(Cc2nc(-c3cn(CC4CCS(=O)(=O)CC4)c4c(Cl)cccc34)no2)CC1
microsomal CLint [1]: < 12 µL/min/mg
microsomal CLint [2]: < 12 µL/min/mg
EC50 (Cannabinoid receptor 1 [3]): 1000 nM

COc1cccc2c(-c3noc(CN4CCC(C(=O)NCCO)CC4)n3)cn(CC3CCOCC3)c12
EC50 (Cannabinoid receptor 1 [3]): 631 nM

COc1cccc2c(-c3noc(CN(C)CC(N)=O)n3)cn(CC3CCOCC3)c12
EC50 (Cannabinoid receptor 1 [3]): 2510 nM

CN(CC(N)=O)Cc1nc(-c2cn(CC3CCOCC3)c3c(Cl)cccc23)no1.Cl
microsomal CLint [1]: 43 µL/min/mg
Kp [4]: 0.9
microsomal CLint [2]: 36 µL/min/mg

O=C(NCCO)C1CCN(Cc2nc(-c3cn(CC4CCOCC4)c4c(Cl)cccc34)no2)CC1
Ki (Cannabinoid receptor 1 [5]): 3.98 nM
Ki (Cannabinoid receptor 2): 20 nM
microsomal CLint [1]: 18 µL/min/mg
Kp [4]: 0.03
microsomal CLint [2]: 16 µL/min/mg
bioavailability [6]: 8%

CN(CC(N)=O)Cc1nc(-c2cn(CC3CCS(=O)(=O)CC3)c3c(Cl)cccc23)no1
microsomal CLint [1]: 33 µL/min/mg
microsomal CLint [2]: 26 µL/min/mg
EC50 (Cannabinoid receptor 1 [3]): 158 nM

Cc1c(C(=O)c2cccc3ccccc23)c2cccc3c2n1[C@H](CN1CCOCC1)CO3 [WIN-552122]
ED50 (Rattus norvegicus [7]): 1.6 µmol/kg
Ratio (Rattus norvegicus [8]): 3.7
Kp [4]: 1.3
MED (Rattus norvegicus [9]): 5.7 µmol/kg
bioavailability [6]: 0%

O=C(NCCO)[C@H]1CCCN(Cc2nc(-c3cn(CC4CCS(=O)(=O)CC4)c4c(Cl)cccc34)ns2)C1
Ki (Cannabinoid receptor 1 [5]): 31.6 nM
Ki (Cannabinoid receptor 2): 20 nM
microsomal CLint [1]: 32 µL/min/mg
Kp [4]: 0.03
microsomal CLint [2]: 47 µL/min/mg
bioavailability [6]: 1%
EC50 (Cannabinoid receptor 1 [3]): 20 nM
solubility [10]: 45 µg/mL (≈ 79.5 µM)

NC(=O)CN1CCN(Cc2nc(-c3cn(CC4CCS(=O)(=O)CC4)c4c(Cl)cccc34)no2)CC1
microsomal CLint [1]: 48 µL/min/mg
microsomal CLint [2]: < 12 µL/min/mg
EC50 (Cannabinoid receptor 1 [3]): 501 nM

NC(=O)CN1CCN(Cc2nc(-c3cn(CC4CCS(=O)(=O)CC4)c4c(Cl)cccc34)ns2)CC1
microsomal CLint [1]: < 12 µL/min/mg
microsomal CLint [2]: < 12 µL/min/mg
pEC50 (Cannabinoid receptor 1 [3]): 6.7

NC(=O)CN1CCN(Cc2nc(-c3cn(CC4CCOCC4)c4c(Cl)cccc34)ns2)CC1
microsomal CLint [1]: 23 µL/min/mg
microsomal CLint [2]: 23 µL/min/mg
EC50 (Cannabinoid receptor 1 [3]): 63.1 nM

CN(CC(N)=O)Cc1nc(-c2cn(CC3CCOCC3)c3c(Cl)cccc23)ns1
EC50 (Cannabinoid receptor 1 [3]): 631 nM

COc1cccc2c(-c3nsc(CN4CCN(CC(N)=O)CC4)n3)cn(CC3CCOCC3)c12
Ki (Cannabinoid receptor 1 [5]): 6.31 nM
Ki (Cannabinoid receptor 2): 15.8 nM
microsomal CLint [1]: 17 µL/min/mg
Kp [4]: 0.18
microsomal CLint [2]: 17 µL/min/mg
bioavailability [6]: 40%
EC50 (Cannabinoid receptor 1 [3]): 79.4 nM
solubility [10]: 5 µg/mL (≈ 10.3 µM)

NC(=O)CN1CCN(Cc2nc(-c3cn(CC4CCOCC4)c4c(Cl)cccc34)no2)CC1
efflux ratio [11]: 1.5
ED50 (Rattus norvegicus [12]): 17 µmol/kg
Ki [13]: 20000 nM
clearance [14]: 9.5 mL/min/kg
Cmax [15]: 722 ng/mL
Activity (Rattus norvegicus [16]): inactive
Kp [17]: 0.16
Vd [18]: 2.6 L/kg
MED (Rattus norvegicus [19]): > 160 µmol/kg
Ratio AUC [20]: 0.21
Ki (Cannabinoid receptor 1 [5]): 20 nM
ED50 (Rattus norvegicus [21]): 2.5 µmol/kg
fraction unbound [22]: 0.039
Ratio [23]: 0.23
Cmax [24]: 814 ng/mL
fraction unbound [25]: 0.04
microsomal CLint [26]: < 12 µL/min/mg
Kp [27]: 0.22
Kp [28]: 0.2
fraction unbound [29]: 0.034
bioavailability [30]: 45%
Ki (Cannabinoid receptor 2): 50.1 nM
microsomal CLint [31]: 13 µL/min/mg
Cmax [32]: 148 ng/g
microsomal CLint [33]: < 12 µL/min/mg
hepatocyte CLint [34]: 3 µL/min/1e6 cells
fraction unbound [35]: 0.063
microsomal CLint [1]: < 12 µL/min/mg
half-life [36]: 3.8 h
Kp [4]: 0.16
Ratio (Rattus norvegicus [37]): >9.3
hepatocyte CLint [38]: 7 µL/min/1e6 cells
fraction unbound [39]: 0.037
Cmax [40]: 6.4 ng/mL
Cmax [41]: 134 ng/g
microsomal CLint [2]: 12 µL/min/mg
bioavailability [6]: 45%
Papp [42]: 6.2 ×10⁻⁶ cm/s
Kp [43]: 0.16
solubility [10]: 89 µg/mL (≈ 188 µM)

CN(CC(=O)NCCO)Cc1nc(-c2cn(CC3CCOCC3)c3c(Cl)cccc23)no1
microsomal CLint [1]: 49 µL/min/mg
microsomal CLint [2]: 66 µL/min/mg
